Assays:
Format in all cases: functional
SK-MEL-28 = assay: Cytotoxicity against Homo sapiens (human) SK-MEL-28 cells assessed as growth inhibition at 10 uM after 48 hr by coulter counter analysis; conditions: SK-MEL-28, 48 h, read-out: GI
MDA-MB-435 = assay: Cytotoxicity against Homo sapiens (human) MDA-MB-435 cells assessed as growth inhibition at 10 uM after 48 hr by coulter counter analysis; conditions: MDA-MB-435, 48 h, read-out: GI
M14 = assay: Cytotoxicity against Homo sapiens (human) M14 cells assessed as growth inhibition at 10 uM after 48 hr by coulter counter analysis; conditions: M14, 48 h, read-out: GI
LOX IMVI = assay: Cytotoxicity against Homo sapiens (human) LOXIMVI cells assessed as growth inhibition at 10 uM after 48 hr by coulter counter analysis; conditions: read-out: GI
SNB-19 = assay: Cytotoxicity against Homo sapiens (human) SNB19 cells assessed as growth inhibition at 10 uM after 48 hr by coulter counter analysis; conditions: SNB-19, 48 h, read-out: GI
SF-539 = assay: Cytotoxicity against Homo sapiens (human) SF539 cells assessed as growth inhibition at 10 uM after 48 hr by coulter counter analysis; conditions: SF-539, 48 h, read-out: GI
SF-295 = assay: Cytotoxicity against Homo sapiens (human) SF295 cells assessed as growth inhibition at 10 uM after 48 hr by coulter counter analysis; conditions: SF-295, 48 h, read-out: GI
OVCAR-4 = assay: Cytotoxicity against Homo sapiens (human) OVCAR4 cells assessed as growth inhibition at 10 uM after 48 hr by coulter counter analysis; conditions: OVCAR-4, 48 h, read-out: GI
OVCAR-3 = assay: Cytotoxicity against Homo sapiens (human) OVCAR3 cells assessed as growth inhibition at 10 uM after 48 hr by coulter counter analysis; conditions: OVCAR-3, 48 h, read-out: GI
IGROV-1 = assay: Cytotoxicity against Homo sapiens (human) IGROV1 cells assessed as growth inhibition at 10 uM after 48 hr by coulter counter analysis; conditions: IGROV-1, 48 h, read-out: GI
UACC-257 = assay: Cytotoxicity against Homo sapiens (human) UACC257 cells assessed as growth inhibition at 10 uM after 48 hr by coulter counter analysis; conditions: UACC-257, 48 h, read-out: GI
MDA-MB-468 = assay: Cytotoxicity against Homo sapiens (human) MDA-MB-468 cells assessed as growth inhibition at 10 uM after 48 hr by coulter counter analysis; conditions: MDA-MB-468, 48 h, read-out: GI
T47D = assay: Cytotoxicity against Homo sapiens (human) T47D cells assessed as growth inhibition at 10 uM after 48 hr by coulter counter analysis; conditions: read-out: GI
BT-549 = assay: Cytotoxicity against Homo sapiens (human) BT549 cells assessed as growth inhibition at 10 uM after 48 hr by coulter counter analysis; conditions: BT-549, 48 h, read-out: GI
Hs-578T = assay: Cytotoxicity against Homo sapiens (human) Hs578T cells assessed as growth inhibition at 10 uM after 48 hr by coulter counter analysis; conditions: read-out: GI
MDA-MB-231 = assay: Cytotoxicity against Homo sapiens (human) MDA-MB-231 cells assessed as growth inhibition at 10 uM after 48 hr by coulter counter analysis; conditions: MDA-MB-231, 48 h, read-out: GI
MCF7 = assay: Cytotoxicity against Homo sapiens (human) MCF7 cells assessed as growth inhibition at 10 uM after 48 hr by coulter counter analysis; conditions: MCF7, 48 h, read-out: GI
DU-145 = assay: Cytotoxicity against Homo sapiens (human) DU145 cells assessed as growth inhibition at 10 uM after 48 hr by coulter counter analysis; conditions: DU-145, 48 h, read-out: GI
TK-10 = assay: Cytotoxicity against Homo sapiens (human) TK10 cells assessed as growth inhibition at 10 uM after 48 hr by coulter counter analysis; conditions: TK-10, 48 h, read-out: GI
SN12C = assay: Cytotoxicity against Homo sapiens (human) SN12C cells assessed as growth inhibition at 10 uM after 48 hr by coulter counter analysis; conditions: read-out: GI
RXF 393 = assay: Cytotoxicity against Homo sapiens (human) RXF393 cells assessed as growth inhibition at 10 uM after 48 hr by coulter counter analysis; conditions: RXF 393, 48 h, read-out: GI
OVCAR-8 = assay: Cytotoxicity against Homo sapiens (human) OVCAR8 cells assessed as growth inhibition at 10 uM after 48 hr by coulter counter analysis; conditions: OVCAR-8, 48 h, read-out: GI
OVCAR-5 = assay: Cytotoxicity against Homo sapiens (human) OVCAR5 cells assessed as growth inhibition at 10 uM after 48 hr by coulter counter analysis; conditions: OVCAR-5, 48 h, read-out: GI
HCT-116 = assay: Cytotoxicity against Homo sapiens (human) HCT116 cells assessed as growth inhibition at 10 uM after 48 hr by coulter counter analysis; conditions: HCT-116, 48 h, read-out: GI
HCC 2998 = assay: Cytotoxicity against Homo sapiens (human) HCC2998 cells assessed as growth inhibition at 10 uM after 48 hr by coulter counter analysis; conditions: HCC 2998, 48 h, read-out: GI
COLO 205 = assay: Cytotoxicity against Homo sapiens (human) COLO205 cells assessed as growth inhibition at 10 uM after 48 hr by coulter counter analysis; conditions: COLO 205, 48 h, read-out: GI
NCI-H460 = assay: Cytotoxicity against Homo sapiens (human) NCI-H460 cells assessed as growth inhibition at 10 uM after 48 hr by coulter counter analysis; conditions: NCI-H460, 48 h, read-out: GI
NCI-H23 = assay: Cytotoxicity against Homo sapiens (human) NCI-H23 cells assessed as growth inhibition at 10 uM after 48 hr by coulter counter analysis; conditions: NCI-H23, 48 h, read-out: GI
HOP-92 = assay: Cytotoxicity against Homo sapiens (human) HOP92 cells assessed as growth inhibition at 10 uM after 48 hr by coulter counter analysis; conditions: HOP-92, 48 h, read-out: GI
A549 = assay: Cytotoxicity against Homo sapiens (human) A549 cells assessed as growth inhibition at 10 uM after 48 hr by coulter counter analysis; conditions: A549, 48 h, read-out: GI
SR = assay: Cytotoxicity against Homo sapiens (human) SR cells assessed as growth inhibition at 10 uM after 48 hr by coulter counter analysis; conditions: read-out: GI
RPMI-8226 = assay: Cytotoxicity against Homo sapiens (human) RPMI8226 cells assessed as growth inhibition at 10 uM after 48 hr by coulter counter analysis; conditions: RPMI-8226, 48 h, read-out: GI
MOLT-4 = assay: Cytotoxicity against Homo sapiens (human) MOLT4 cells assessed as growth inhibition at 10 uM after 48 hr by coulter counter analysis; conditions: MOLT-4, 48 h, read-out: GI
K562 = assay: Cytotoxicity against Homo sapiens (human) K562 cells assessed as growth inhibition at 10 uM after 48 hr by coulter counter analysis; conditions: K562, 48 h, read-out: GI

Compound	inhibition of growth at 10 µM (SK-MEL-28)	inhibition of growth at 10 µM (MDA-MB-435)	inhibition of growth at 10 µM (M14)	inhibition of growth at 10 µM (LOX IMVI)	inhibition of growth at 10 µM (SNB-19)	inhibition of growth at 10 µM (SF-539)	inhibition of growth at 10 µM (SF-295)	inhibition of growth at 10 µM (OVCAR-4)	inhibition of growth at 10 µM (OVCAR-3)	inhibition of growth at 10 µM (IGROV-1)	inhibition of growth at 10 µM (UACC-257)	inhibition of growth at 10 µM (MDA-MB-468)	inhibition of growth at 10 µM (T47D)	inhibition of growth at 10 µM (BT-549)	inhibition of growth at 10 µM (Hs-578T)	inhibition of growth at 10 µM (MDA-MB-231)	inhibition of growth at 10 µM (MCF7)	inhibition of growth at 10 µM (DU-145)	inhibition of growth at 10 µM (TK-10)	inhibition of growth at 10 µM (SN12C)	further results
CN(C)c1ccc(-c2nc3c(c(=O)[nH]2)C(c2ccc(Cl)cc2)C2=C(CCCC2)N3)cc1 (stereo not drawn)	< 10%	< 10%	< 10%	< 10%	< 10%	< 10%	< 10%	< 10%	11.1%	< 10%	< 10%	< 10%	17.6%	< 10%	< 10%	12%	< 10%	< 10%	< 10%	14.6%	inhibition of growth at 10 µM (RXF 393): < 10%; inhibition of growth at 10 µM (OVCAR-8): < 10%; inhibition of growth at 10 µM (OVCAR-5): < 10%; inhibition of growth at 10 µM (HCT-116): < 10%; inhibition of growth at 10 µM (HCC 2998): < 10%; inhibition of growth at 10 µM (COLO 205): 10.2%; inhibition of growth at 10 µM (NCI-H460): < 10%; inhibition of growth at 10 µM (NCI-H23): 12.4%; inhibition of growth at 10 µM (HOP-92): 35.9%; inhibition of growth at 10 µM (A549): < 10%; inhibition of growth at 10 µM (SR): < 10%; inhibition of growth at 10 µM (RPMI-8226): < 10%; inhibition of growth at 10 µM (MOLT-4): < 10%; inhibition of growth at 10 µM (K562): < 10%
COc1ccc(-c2nc3c(c(=O)[nH]2)C(c2ccc(Cl)cc2)C2=C(CCCC2)N3)cc1OC (stereo not drawn)	< 10%	< 10%	< 10%	< 10%	< 10%	< 10%	< 10%	< 10%	< 10%	< 10%	< 10%	< 10%	< 10%	< 10%	< 10%	12.6%	13.5%	< 10%	< 10%	12%	inhibition of growth at 10 µM (RXF 393): < 10%; inhibition of growth at 10 µM (OVCAR-8): < 10%; inhibition of growth at 10 µM (OVCAR-5): < 10%; inhibition of growth at 10 µM (HCT-116): < 10%; inhibition of growth at 10 µM (HCC 2998): < 10%; inhibition of growth at 10 µM (COLO 205): < 10%; inhibition of growth at 10 µM (NCI-H460): < 10%; inhibition of growth at 10 µM (NCI-H23): < 10%; inhibition of growth at 10 µM (HOP-92): < 10%; inhibition of growth at 10 µM (A549): < 10%; inhibition of growth at 10 µM (SR): < 10%; inhibition of growth at 10 µM (RPMI-8226): < 10%; inhibition of growth at 10 µM (MOLT-4): < 10%; inhibition of growth at 10 µM (K562): < 10%

— ChEMBL document CHEMBL3045802, “Synthesis and in vitro antitumor activity of new quinoline, pyrimido[4,5-b]quinoline, [1,2,3]triazino[4,5-b]quinoline, and [1,2,4]triazolo[2,3:3,4]pyrimido[6,5-b]quinoline analogs” (2013)
